{"source": "patent US20210316013A1", "about": "“HAEMATOPOIETIC STEM CELL-GENE THERAPY FOR WISKOTT-ALDRICH SYNDROME” (priority 2018, published 2021)", "tested_on": "Jurkat cells", "assay": "Titration of 6TG dosing window, Jurkat cell viability", "type": "cell-based", "settings": "6TG 0.01-100 μM, viability after 2 days, cell counter TC20", "method": "Jurkat cells were incubated in a 96-well plate with different concentrations of 6TG (0.01-100 μM). After 2 days, viability of the cells was measured with cell counter TC20. Optimal 6TG dose for Jurkat cells was estimated to be approx. 504. A nominal concentration of 2.5 μM 6TG was elected for subsequent chemo-selection experiments. The results are illustrated in FIG. 20A."}
{"smiles": "Nc1nc2nc[nH]c2c(=S)[nH]1", "note": "[Candidate 6TG, 6-thioguanine]", "values": [{"measurement": "Optimal 6TG dose for Jurkat cells", "result": "approx. 504"}]}
